According to US20200385371A1 (Propellon Therapeutics Inc., priority 2017, published 2020):

What was measured:
WDR5 [1] = target: T1, WDR5 (Homo sapiens, UniProt P61964); test: Surface Plasmon Resonance (SPR) assay; type: binding; parameters: Full length WDR5 with an N-terminal His tag and C-terminal AviTag; His tag (N); made in house; host or cells: E. coli; conditions: read-out: SPR Kd
How it was run: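 Full-length biotinylated WDR5 (N-His, C-AviTag, E. coli) captured (~3000 RU) on streptavidin SA chip; Biacore T200. HBS-EP pH 7.4 plus 5% DMSO running buffer, 40 μl/min.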

WDR5 [2] = target: T1, WDR5; test: Fluorescence Polarization (FP) binding assay
How it was run: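 Displacement of fluorescein-labelled H3 (1-15) (30 nM, with 0.3 μM WDR5) or 9-Ala-FAM (20 nM, with 0.05 μM WDR5) in 80 mM sodium phosphate pH 6.5, 20 mM KCl, 0.008% Triton X-100. FP read at 485/528 nm (H3) or 480/540 nm (9-Ala-FAM); Kdisp from hyperbolic fit, mean of quadruplicates.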

MV4-11 cells = test: Cell proliferation assay (ATPlite); type: cell-based; conditions: Homo sapiens, 120 h; MV4-11 cells, five days; read-out: GI MV411 EC50
How it was run: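 Cells seeded at 1,000/well in Alpha-MEM with 10% FBS, treated with compound over a 10-point range (top 10 μM) or DMSO. Grown five days at 37° C, 5% CO2; viability by ATPlite luminescence.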

| SMILES | Kd (WDR5 [1]) | IC50 (WDR5 [2]) | EC50 (MV4-11 cells) |
| --- | --- | --- | --- |
| C[C@@H]1CN(c2cc(F)c(-c3ccc4c(c3)OCCO4)c(F)c2NC(=O)c2c[nH]c(=O)cc2C(F)(F)F)C[C@H](C)N1C [Example 72, N-(3-(2,3-dihydrobenzo[b][1,4]dioxin-6-yl)-2,4-difluoro-6-((3S,5R)-3,4,5-trimethylpiperazin-1-yl)phenyl)-6-oxo-4-(trifluoromethyl)-1,6-dihydropyridine-3-carboxamide] | 0.7 nM | 18.2 nM | 99.1 nM |
| C[C@@H]1CN(c2cc(F)c(-c3cnc4c(c3)OCCO4)c(F)c2NC(=O)c2c[nH]c(=O)cc2C(F)(F)F)C[C@H](C)N1C [Example 73, N-(3-(2,3-dihydro-[1,4]dioxino[2,3-b]pyridin-7-yl)-2,4-difluoro-6-((3S,5R)-3,4,5-trimethylpiperazin-1-yl)phenyl)-6-oxo-4-(trifluoromethyl)-1,6-dihydropyridine-3-carboxamide] | 1.26 nM | 16.8 nM | 110 nM |
| COc1cc(N2CC=C(c3c(F)cc(N4CCN(C)[C@@H](C)C4)c(NC(=O)c4c[nH]c(=O)cc4C(F)F)c3F)C2)ncn1 [Example 74, (S)-4-(difluoromethyl)-N-(6-(3,4-dimethylpiperazin-1-yl)-2,4-difluoro-3-(1-(6-methoxypyrimidin-4-yl)-2,5-dihydro-1H-pyrrol-3-yl)phenyl)-6-oxo-1,6-dihydropyridine-3-carboxamide] | 2.12 nM | 16.4 nM | 36.7 nM |
| COc1cc(N2CC=C(c3c(F)cc(N4CCN(C)[C@@H](C)C4)c(NC(=O)c4c[nH]c(=O)cc4C(F)(F)F)c3F)C2)ncn1 [Example 75, (S)—N-(6-(3,4-dimethylpiperazin-1-yl)-2,4-difluoro-3-(1-(6-methoxypyrimidin-4-yl)-2,5-dihydro-1H-pyrrol-3-yl)phenyl)-6-oxo-4-(trifluoromethyl)-1,6-dihydropyridine-3-carboxamide] | 1.8 nM | 18.5 nM | 35.1 nM |
| COc1cc(N2CC=C(c3c(F)cc(N4CCN(C)[C@@H](C)C4)c(NC(=O)c4c[nH]c(=O)cc4C(F)(F)F)c3F)CC2)ncn1 [Example 76, (S)—N-(6-(3,4-dimethylpiperazin-1-yl)-2,4-difluoro-3-(1-(6-methoxypyrimidin-4-yl)-1,2,3,6-tetrahydropyridin-4-yl)phenyl)-6-oxo-4-(trifluoromethyl)-1,6-dihydropyridine-3-carboxamide] | 1.42 nM | 21.6 nM | 42 nM |
| C[C@@H]1CN(c2nccc(-c3c(F)cc(N4C[C@@H](C)N(C)[C@@H](C)C4)c(NC(=O)c4c[nH]c(=O)cc4C(F)(F)F)c3F)n2)C[C@H](C)O1 [Example 77, N-(3-(2-((2S,6R)-2,6-dimethylmorpholino)pyrimidin-4-yl)-2,4-difluoro-6-((3S,5R)-3,4,5-trimethylpiperazin-1-yl)phenyl)-6-oxo-4-(trifluoromethyl)-1,6-dihydropyridine-3-carboxamide] | 1.12 nM | 10.1 nM | 108 nM |
| C[C@@H]1CN(c2nccc(-c3c(F)cc(N4C[C@@H](C)N(C)[C@@H](C)C4)c(NC(=O)c4c[nH]c(=O)cc4C(F)F)c3F)n2)C[C@H](C)O1 [Example 78, 4-(Difluoromethyl)-N-(3-(2-((2S,6R)-2,6-dimethylmorpholino)pyrimidin-4-yl)-2,4-difluoro-6-((3S,5R)-3,4,5-trimethylpiperazin-1-yl)phenyl)-6-oxo-1,6-dihydropyridine-3-carboxamide] | 1.16 nM | 14.7 nM | 64.1 nM |
| COc1cc(N2CCC=C(c3c(F)cc(N4CCN(C)[C@@H](C)C4)c(NC(=O)c4c[nH]c(=O)cc4C(F)F)c3F)C2)ncn1 [Example 79, (S)-4-(difluoromethyl)-N-(6-(3,4-dimethylpiperazin-1-yl)-2,4-difluoro-3-(1-(6-methoxypyrimidin-4-yl)-1,2,5,6-tetrahydropyridin-3-yl)phenyl)-6-oxo-1,6-dihydropyridine-3-carboxamide] | 1.67 nM | 13.6 nM | 223 nM |
| C[C@H]1CN(c2cc(F)c(C3=CCN(c4ncc(F)cn4)C3)c(F)c2NC(=O)c2c[nH]c(=O)cc2C(F)(F)F)CCN1C [Example 80, (S)—N-(6-(3,4-dimethylpiperazin-1-yl)-2,4-difluoro-3-(1-(5-fluoropyrimidin-2-yl)-2,5-dihydro-1H-pyrrol-3-yl)phenyl)-6-oxo-4-(trifluoromethyl)-1,6-dihydropyridine-3-carboxamide] | 1.27 nM | 23 nM | 58.3 nM |
| C[C@H]1CN(c2cc(F)c(C3=CCN(c4ncc(F)cn4)CC3)c(F)c2NC(=O)c2c[nH]c(=O)cc2C(F)F)CCN1C [Example 81, (S)-4-(difluoromethyl)-N-(6-(3,4-dimethylpiperazin-1-yl)-2,4-difluoro-3-(1-(5-fluoropyrimidin-2-yl)-1,2,3,6-tetrahydropyridin-4-yl)phenyl)-6-oxo-1,6-dihydropyridine-3-carboxamide] | 1.37 nM | 12.5 nM | 44 nM |
| C[C@H]1CN(c2cc(F)c(C3=CCN(c4ncc(F)cn4)CC3)c(F)c2NC(=O)c2c[nH]c(=O)cc2C(F)(F)F)CCN1C [Example 82, (S)—N-(6-(3,4-dimethylpiperazin-1-yl)-2,4-difluoro-3-(1-(5-fluoropyrimidin-2-yl)-1,2,3,6-tetrahydropyridin-4-yl)phenyl)-6-oxo-4-(trifluoromethyl)-1,6-dihydropyridine-3-carboxamide] | 1.22 nM | 16 nM | 52.8 nM |
| C[C@H]1CN(c2cc(F)c(C3=CCCN(c4ncc(F)cn4)C3)c(F)c2NC(=O)c2c[nH]c(=O)cc2C(F)F)CCN1C [Example 83, (S)-4-(difluoromethyl)-N-(6-(3,4-dimethylpiperazin-1-yl)-2,4-difluoro-3-(1-(5-fluoropyrimidin-2-yl)-1,2,5,6-tetrahydropyridin-3-yl)phenyl)-6-oxo-1,6-dihydropyridine-3-carboxamide] | 1.15 nM | 15.5 nM | 382 nM |
| C[C@H]1CN(c2cc(F)c(C3=CCCN(c4ncc(F)cn4)C3)c(F)c2NC(=O)c2c[nH]c(=O)cc2C(F)(F)F)CCN1C [Example 84, (S)—N-(6-(3,4-dimethylpiperazin-1-yl)-2,4-difluoro-3-(1-(5-fluoropyrimidin-2-yl)-1,2,5,6-tetrahydropyridin-3-yl)phenyl)-6-oxo-4-(trifluoromethyl)-1,6-dihydropyridine-3-carboxamide] | 1.43 nM | 16.4 nM | 162 nM |
| C[C@@H]1CN(c2ncc(-c3c(F)cc(N4CCN(C)[C@@H](C)C4)c(NC(=O)c4c[nH]c(=O)cc4C(F)(F)F)c3F)cn2)C[C@@H](C)O1 [Example 85, N-(3-(2-((2R,6R)-2,6-dimethylmorpholino)pyrimidin-5-yl)-6-((S)-3,4-dimethylpiperazin-1-yl)-2,4-difluorophenyl)-6-oxo-4-(trifluoromethyl)-1,6-dihydropyridine-3-carboxamide] | 1.24 nM | 13.8 nM | 10.3 nM |
| C[C@@H]1CN(c2ncc(-c3c(F)cc(N4C[C@@H](C)N(C)[C@@H](C)C4)c(NC(=O)c4c[nH]c(=O)cc4C(F)(F)F)c3F)cn2)C[C@@H](C)O1 [Example 86, N-(3-(2-((2R,6R)-2,6-dimethylmorpholino)pyrimidin-5-yl)-2,4-difluoro-6-((3S,5R)-3,4,5-trimethylpiperazin-1-yl)phenyl)-6-oxo-4-(trifluoromethyl)-1,6-dihydropyridine-3-carboxamide] | 0.88 nM | 13.1 nM | 10.5 nM |
| C[C@H]1CN(c2ncc(-c3c(F)cc(N4CCN(C)[C@@H](C)C4)c(NC(=O)c4c[nH]c(=O)cc4C(F)(F)F)c3F)cn2)C[C@H](C)O1 [Example 87, N-(3-(2-((2S,6S)-2,6-dimethylmorpholino)pyrimidin-5-yl)-6-((S)-3,4-dimethylpiperazin-1-yl)-2,4-difluorophenyl)-6-oxo-4-(trifluoromethyl)-1,6-dihydropyridine-3-carboxamide] | 1.47 nM | 9.85 nM | 19.4 nM |
| C[C@@H]1CN(c2cc(F)c(-c3cnc(N4C[C@H](C)O[C@@H](C)C4)nc3)c(F)c2NC(=O)c2c[nH]c(=O)cc2C(F)(F)F)C[C@H](C)N1C [Example 88, N-(3-(2-((2S,6S)-2,6-dimethylmorpholino)pyrimidin-5-yl)-2,4-difluoro-6-((3S,5R)-3,4,5-trimethylpiperazin-1-yl)phenyl)-6-oxo-4-(trifluoromethyl)-1,6-dihydropyridine-3-carboxamide] | 2.49 nM | 13.8 nM | 9.55 nM |
| C[C@H]1CN(c2cc(F)c(-c3cnc(N4C[C@H]5CC[C@@H](C4)O5)nc3)c(F)c2NC(=O)c2c[nH]c(=O)cc2C(F)(F)F)CCN1C [Example 89, N-(3-(2-((1R,5S)-8-oxa-3-azabicyclo[3.2.1]octan-3-yl)pyrimidin-5-yl)-6-((S)-3,4-dimethylpiperazin-1-yl)-2,4-difluorophenyl)-6-oxo-4-(trifluoromethyl)-1,6-dihydropyridine-3-carboxamide] | 0.83 nM | 12.5 nM | 30.8 nM |
